Tests used:
normal human melanocytes [1] = assay: Cytotoxicity on normal human melanocytes, PNPP determination; format: cell-based; details: 24 hours
Experimental: The cytotoxicity of the actives is studied on normal human melanocytes in a 24-well plate by a determination with PNPP(P-nitrophenyl phosphate), a substance which is converted into p-nitrophenol by the intracellular acid phosphatases of viable cells.
The absorbance of p-nitrophenol at 405 nm is directly proportional to the number of viable cells.
The actives are tested at 2 different concentrations (10^−4 M and 10^−5 M) and are added to the culture medium and are incubated at 37° C. for 24 hours. The determination with PNPP is carried out on a cell mat and the results are expressed as a percentage viability with respect to the negative control (non-treated wells).

eye of rabbits = assay: Evaluation of the ocular irritation in the rabbit (OECD 405); format: in vivo; details: compound at 10% in a 0.5% xanthan gum, instilled pure, 0.1 ml
Experimental: (§1) Toxicology tests were carried out on the compound obtained according to Example 9 incorporated at 10% in a 0.5% xanthan gum, by an ocular evaluation in the rabbit, by the study of the absence of abnormal toxicity by single oral administration in the rat and by the study of the sensitizing power in the guinea pig.
The preparations described above were instilled pure and in one batch at the rate of 0.1 ml in the eye of three rabbits according to the method recommended by the directive of the OECD NO. 405 of Feb. 24, 1987, in relation to the study of “the acute irritant/corrosive effect on the eyes”.

guinea pig = assay: Skin sensitisation potential in the guinea pig, Magnusson and Kligmann maximization test (OECD 406); format: in vivo; details: compound at 10% in a 0.5% xanthan gum
Experimental: as §1
The preparations described are subjected to the maximization test described by Magnusson and Kligmann, a protocol which is in agreement with the directive line No. 406 of the OECD.

rat = assay: in vivo; details: both, po
Experimental: as §1
(§2) The preparations described were administered in one batch orally at the dose of 5 g/Kg of body weight, to 5 male rats and 5 female rats according to a protocol inspired from the Directive of the OECD No. 401 of Feb. 24, 1987 and adapted to cosmetic products. The LD0 and LD50 are found to be greater than 5,000 mg/Kg. The preparations tested are therefore not classed amongst the preparations which are dangerous by ingestion.

in vivo = details: both sexes, rat, po
Experimental: as §1, §2

Human tyrosinase = target: T1, Human tyrosinase (Homo sapiens, UniProt P14679); assay: Inhibition of human tyrosinase in a monolayer after application of the actives on normal human melanocytes; format: cell-based; details: for Inhibition of human tyrosinase after application on normal human melanocytes, percentage inhibition: 24 hours; for Inhibition of human tyrosinase on normal human melanocytes, result in words: model of Example 15
T1 construct: Normal human melanocytes (originating from abdominal plasty) are sown in a 24-well plate; endogenous in cells; host or cells: normal human melanocytes (abdominal plasty; donors of light, brown and black phototype)
T1 sequence (P14679 19-529): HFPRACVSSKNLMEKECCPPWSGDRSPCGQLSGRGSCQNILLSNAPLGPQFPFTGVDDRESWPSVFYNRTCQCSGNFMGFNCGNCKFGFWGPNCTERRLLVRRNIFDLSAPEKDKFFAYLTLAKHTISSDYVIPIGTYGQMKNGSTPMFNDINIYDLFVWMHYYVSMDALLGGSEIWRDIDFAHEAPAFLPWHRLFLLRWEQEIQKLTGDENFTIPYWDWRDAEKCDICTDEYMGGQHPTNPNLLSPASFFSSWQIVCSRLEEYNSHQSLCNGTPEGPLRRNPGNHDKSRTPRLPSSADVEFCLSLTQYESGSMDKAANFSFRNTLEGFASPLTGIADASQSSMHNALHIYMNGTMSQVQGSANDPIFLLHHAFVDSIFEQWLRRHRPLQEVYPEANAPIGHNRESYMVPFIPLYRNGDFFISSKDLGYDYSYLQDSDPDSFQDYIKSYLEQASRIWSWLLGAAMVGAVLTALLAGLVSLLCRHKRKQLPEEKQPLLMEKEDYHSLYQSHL
Experimental: Normal human melanocytes (originating from abdominal plasty) are sown in a 24-well plate at the rate of 80,000 cells per well. They are cultivated up to confluence and the actives are applied for 24 hours in the culture media. After 24 hours, the media are removed and the melanocytes are picked up by mechanical action. An extraction is made by heat shock and the supernatants are then recovered and then incubated with MBTH (Sigma) and L-Dopa (Sigma). The OD at 490 nm is measured after 30 minutes, and the inhibition is of the tyrosinase is calculated by comparing the OD at 490 nm to the protein level (measured in each culture well) of the test with respect to the ratio: OD 490 nm/concentration of protein of the negative control (non-treated control). […]

normal human melanocytes [2] = test system: normal human melanocytes
Text: A study is made with molecules known in the literature for their depigmenting activity. These molecules are applied to the model described in Example 15 so as to compare their efficiency with respect to the aurones is described above.

Compound | Percentages viability on normal human melanocytes (normal human melanocytes [1]; 10^−5 M) | Percentages viability on normal human melanocytes (normal human melanocytes [1]; 10^−4 M) | other results
CCc1ccc(/C=C2\Oc3cc(OC)cc(OC)c3C2=O)cc1 [Example 5b, (Z)-4,6-dimethoxy-2-(4′-ethylbenzylidene)benzofuran-3(2H)-one] | 99.62% |  | 
COc1ccc(/C=C2\Oc3cc(O)cc(O)c3C2=O)cc1 [Example 9, (Z)-4,6-Dihydroxy-2-(4-methoxybenzylidene)benzofuran-3(2H)-one] |  |  | Ocular irritation (eye of rabbits): non-irritant for the eyes; Skin sensitisation potential (guinea pig): non-sensitizing by contact with the skin; LD0 (rat): greater than 5,000 mg/Kg; LD50 (in vivo): > 5000 mg/kg
COc1cc(OC)c2c(c1)O/C(=C\c1ccc(SC)cc1)C2=O [Example 5c, (Z)-4,6-dimethoxy-2-(4′-methylthiobenzylidene)benzofuran-3(2H)-one] | 136.13% | 80.08% | 
CCc1ccc(/C=C2\Oc3cc(O)cc(O)c3C2=O)cc1 [Example 7b] | 143.15% | 63.52% | Inhibition of human tyrosinase after application on normal human melanocytes, percentage inhibition (Human tyrosinase; 10^−5M): 4.52%
COc1cc(O)c2c(c1)O/C(=C\c1ccccc1)C2=O [Example 6, (Z)-2-Benzylidene-4-hydroxy-6-methoxybenzofuran-3(2H)-one] | 121.56% |  | 
COc1cc(O)c2c(c1)O/C(=C\c1ccc(SC)cc1)C2=O [Example 6c] | 116.24% |  | Inhibition of human tyrosinase after application on normal human melanocytes, percentage inhibition (Human tyrosinase; 10^−5M): 14.19%
O=C1/C(=C/c2ccc(O)cc2)Oc2cc(O)cc(O)c21 [Example 9b, (Z)-4,6-Dihydroxy-2-(4′-hydroxybenzylidene)benzofuran-3(2H)-one] | 128.39% | 90.31% | Inhibition of human tyrosinase on normal human melanocytes, result in words (Human tyrosinase): particularly active; Inhibition of human tyrosinase on normal human melanocytes, result in words (Human tyrosinase; listed as compound 9b): high efficiency
COc1cc(OC)c2c(c1)O/C(=C\c1ccccc1)C2=O [Example 5, (Z)-2-Benzylidene-4,6-dimethoxybenzofuran-3(2H)-one] | 98.55% | 83.1% | 
COc1cc(OC)c2c(c1)OCC2=O [Example 4, 4,6-Dimethoxybenzofuran-3(2H)-one] | 85.33% | 106.77% | 
COc1cc(OC)c2c(c1)O/C(=C\c1ccc(O)cc1)C2=O [Example 5a, (Z)-4,6-dimethoxy-2-(4′-hydroxybenzylidene)benzofuran-3(2H)-one] | 90.87% | 104.53% | 
O=C1O[C@H]([C@@H](O)CO)C(O)=C1OP(=O)(O)O [VitC PMG, reference compound] |  |  | Inhibition (%) of tyrosinase (Human tyrosinase; tested at 0.03%): 2.93%; Inhibition (%) of tyrosinase (Human tyrosinase; tested at 0.3%): 1.55%; Inhibition (%) of tyrosinase (Human tyrosinase; tested at 3%): −3.49%; cytotoxicity (normal human melanocytes [2]): no
COc1cc(OC)c2c(c1)O/C(=C\c1ccc(C#N)cc1)C2=O [Example 5d, (Z)-2-(4′-cyanobenzylidene)-4,6-dimethoxybenzofuran-3(2H)-one] | 96.51% | 98.93% | 
4,6-Dihydroxybenzofuran-3(2H)-one (R1=OH) and 6-Hydroxybenzofuran-3(2H)-one (R1=H) [Example 2] | 126.09% | 103.84% | Inhibition of human tyrosinase after application on normal human melanocytes, percentage inhibition (Human tyrosinase; 10^−5M): 9.69%
COc1cc(O)c2c(c1)O/C(=C\c1ccc(C#N)cc1)C2=O [Example 6d] | 119.36% | 85.65% | Inhibition of human tyrosinase after application on normal human melanocytes, percentage inhibition (Human tyrosinase; 10^−4M): 2.31%; Inhibition of human tyrosinase after application on normal human melanocytes, percentage inhibition (Human tyrosinase; 10^−5M): 0%

Reference: patent US20060228313A1, “Method of cosmetic depigmentation care by applying at least one aurone” (Coletica, priority 2005, published 2006)
